Results from patent publication US10214477B2, “(Hetero)aryl cyclopropylamine compounds as LSD1 inhibitors” (Oryzon Genomics S.A., priority 2011, dated 2019).
Counter-ions that a name gives are not always drawn.

System: THP-1 cells
Experiment: Induction of differentiation of THP-1 leukemia cells (CD11b membrane expression, flow cytometry)
Type: cell-based
Conditions: Homo sapiens; percentage of CD11b positive THP-1 cells, 96 h treatment
Procedure: By analyzing the induction of CD11b membrane expression on THP-1 cells we are assessing the ability of LSD1 inhibitors to induce terminal monocytic differentiation of a MLL-AF9 AML cell line. […] They carry t(9;11)(p21;q23) leading to MLL-MLLT3 (MLL-AF9) fusion gene. This cell line can undergo monocytic differentiation upon treatment with the appropriate stimulus. […] In this assay, 150, 000 THP-1 cells were seeded in 1 ml of complete culture medium in 6-well tissue culture plates. […] Cells were kept in the presence of test compound for 96 h at a 5% CO2 atmosphere at 37° C. After this treatment period, cells were harvested, washed twice with PBS buffer and placed in a V-bottom 96-well plate. Each treated sample was split in two. […] Percentage of CD11b positive cells, as an indicator of monocytic differentiation, was determined compared to isotype control antibody stained cells. EC50 values were calculated by non-linear regression analysis.

EC50	Compound
0.8 nM	N[C@H]1CC[C@H](N[C@@H]2C[C@H]2c2ccccc2)CC1 [Example 5, (trans)-N1-((1R,2S)-2-phenylcyclopropyl)cyclohexane-1,4-diamine hydrochloride]
5.3 nM	N[C@H]1CC[C@@H](N[C@@H]2C[C@H]2c2ccccc2)CC1 [Example 4, (cis)-N1-((1R,2S)-2-phenylcyclopropyl)cyclohexane-1,4-diamine hydrochloride]
